How the values were obtained:
[1] = tested on: hCLRN1^N48K-YFP; clrn1^+/+ larvae; assay: Larval survival/lethality by TG or ART dose and treatment duration; type: in vivo, zebrafish; design: key: ‘S’ =Surviving; ‘L’ = Lethal; ‘S/L’ Larvae surviving with apoptosis/necrosis of hair cells
Description: Thapsigargin (TG, 1 mg, Sigma-Aldrich, #T9033) stock in 100% DMSO was diluted in E3 medium to make the required final concentration of the drug. Five different concentrations that were earlier reported to induce ER stress and are non-toxic or lower lethal dose (LD50) in the zebrafish (0.1, 0.5, 1.0, 2.5, 5 μM concentrations) were used in this study. A total of 25 larvae per dosage and treatment duration from the genotypes hCLRN1^N48K-YFP; clrn1^+/+ and hCLRN1-YFP; clrn1^+/+, no older than 72 hours post fertilization (hpf) at the start of the experiment, were placed in a well of 12-well uncoated culture plate (BD Falcon, Canaan, CT). For ER stress induction, larvae were incubated in different dosage of TG from 1 hr to overnight at 28.5° C., followed by three times wash with E3 medium at 28.5° C. (Table 2) and hair cells from the hCLRN1^N48K-YFP; clrn1^+/+ and hCLRN1-YFP; clrn1^+/+ lines were examined for the respective protein distribution pattern in the hair cell bundle and the cell body. Live confocal images of ‘O’ and ‘ML1’ neuromasts per larvae were capture using Leica SP2 confocal microscope with 40× oil immersion objective. Unadjusted 1 micron middle section images of four hair bundles per ML1 neuromast of larvae from TG treated and untreated groups were analyzed using Image J software version v. 1.48 (FIG. 4). The hair bundle trafficked amount of hCLRN1^N48K protein corresponds to the change in YFP intensity in the hair bundle in the TG treated larvae. Quantification of YFP fluorescence intensity was carried out as described in the previous experiment for unconventional trafficking of hCLRN1^N48K-YFP by hGRASP55 cargos. […] Student's t-test was used to confirm the observed changes in the YFP intensity in the hair bundles of TG treatment compared to untreated hCLRN1^N48K-YFP; clrn1^+/+ larvae, is significant (FIG. 4J).
Arthemisinin (ART, 100 mg, Sigma-Aldrich, #361593) in 100% DMSO was diluted in E3 medium to make the final concentration. Five different concentrations within the range of reported ER stress inducing level in the zebrafish (0.1, 0.25, 0.4, 0.5, and 1 μM concentrations) were used in this study. A total of 25 larvae, no older than 72 hpf at the start of the experiment, were placed in a well of 12-well uncoated culture plate (BD 35 Falcon, Canaan, CT). For ER stress induction, larvae were exposed in different dosage of ART for different duration at 28.5° C. (Table 3) and washed three times with E3 medium, and hair cells from the hCLRN1-YFP; clrn1^+/+ larvae and hCLRN1^N48K-YFP; clrn1^+/+ larvae were examined for the respective protein distribution pattern in the hair cell bundle and the cell body. Live confocal Z-stack images of otic ‘O’ and middle ‘ML’ neuromasts per larvae of hCLRN1-YFP; clrn1^+/+ larvae and hCLRN1^N48K-YFP; clrn1^+/+ genotypes from the untreated group in the E3 medium, 0.01% DMSO treatment group and ART treatment group were capture using Leica SP2 confocal microscope at 40× oil immersion objective. Hair cells from 2 otic (0) and 2 middle (ML) neuromasts per larvae were examined for the change in YFP intensity in the hair bundle and cell body. From the captured confocal images of these neuromast hair cells, unadjusted 1 micron middle section images of 4 mature hair bundles from ML1 neuromast per larvae were considered for the YFP intensity quantification in unadjusted ROI covering the middle section of each hair bundles using the imageJ software. […] The hair bundle trafficked amount of hCLRN1^N48K protein corresponds to the change in YFP intensity in the hair bundle in the ART treated larvae. Quantification of YFP fluorescence intensity was carried out as described in the previous experiment for unconventional trafficking of hCLRN1^N48K-YFP by hGRASP55 cargos. Student's t-test was used to confirm the observed changes in the YFP intensity in the hair bundles of ART treatment compared to untreated and TG treated hCLRN1^N48K-YFP; clrn1^+/+ larvae, is significant (FIG. 4J).

[2] = tested on: hCLRN1^N48K-YFP; clrn1^+/+ larvae; assay: as above; type: in vivo, zebrafish; settings: TG dosages higher than 1 μM or longer treatment duration
Description: Thapsigargin (TG, 1 mg, Sigma-Aldrich, #T9033) stock in 100% DMSO was diluted in E3 medium to make the required final concentration of the drug. Five different concentrations that were earlier reported to induce ER stress and are non-toxic or lower lethal dose (LD50) in the zebrafish (0.1, 0.5, 1.0, 2.5, 5 μM concentrations) were used in this study. A total of 25 larvae per dosage and treatment duration from the genotypes hCLRN1^N48K-YFP; clrn1^+/+ and hCLRN1-YFP; clrn1^+/+, no older than 72 hours post fertilization (hpf) at the start of the experiment, were placed in a well of 12-well uncoated culture plate (BD Falcon, Canaan, CT). […] Unadjusted 1 micron middle section images of four hair bundles per ML1 neuromast of larvae from TG treated and untreated groups were analyzed using Image J software version v. […] Quantification of YFP fluorescence intensity was carried out as described in the previous experiment for unconventional trafficking of hCLRN1^N48K-YFP by hGRASP55 cargos. […]
Arthemisinin (ART, 100 mg, Sigma-Aldrich, #361593) in 100% DMSO was diluted in E3 medium to make the final concentration. […] Quantification of YFP fluorescence intensity was carried out as described in the previous experiment for unconventional trafficking of hCLRN1^N48K-YFP by hGRASP55 cargos. […]

C[C@@H]1CC[C@H]2[C@@H](C)C(=O)O[C@@H]3O[C@@]4(C)CC[C@@H]1[C@]32OO4 [ART, Artemisinin]
S: Larvae survival ([1]; ART 0.1 μM, exposure 1 h) | Larvae survival ([1]; ART 0.1 μM, exposure 2 h) | Larvae survival ([1]; ART 0.1 μM, exposure 4 h) | Larvae survival ([1]; ART 0.1 μM, exposure 6 h) | Larvae survival ([1]; ART 0.1 μM, exposure 8 h) | Larvae survival ([1]; ART 0.1 μM, exposure 10 h) | Larvae survival ([1]; ART 0.1 μM, post-exposure recovery time 10 h) | Larvae survival ([1]; ART 0.1 μM, post-exposure recovery time 24 h) | Larvae survival ([1]; ART 0.1 μM, post-exposure recovery time 48 h) | Larvae survival ([1]; ART 0.25 μM, exposure 1 h) | Larvae survival ([1]; ART 0.25 μM, exposure 2 h) | Larvae survival ([1]; ART 0.25 μM, exposure 4 h) | Larvae survival ([1]; ART 0.25 μM, exposure 6 h) | Larvae survival ([1]; ART 0.25 μM, exposure 8 h) | Larvae survival ([1]; ART 0.25 μM, exposure 10 h) | Larvae survival ([1]; ART 0.25 μM, post-exposure recovery time 10 h) | Larvae survival ([1]; ART 0.25 μM, post-exposure recovery time 24 h) | Larvae survival ([1]; ART 0.25 μM, post-exposure recovery time 48 h) | Larvae survival ([1]; ART 0.4 μM, 4 hours exposure group, post-exposure recovery time 10 h) | Larvae survival ([1]; ART 0.4 μM, 4 hours exposure group, post-exposure recovery time 24 h) | Larvae survival ([1]; ART 0.4 μM, 4 hours exposure group, post-exposure recovery time 48 h) | Larvae survival ([1]; ART 0.4 μM, exposure 1 h) | Larvae survival ([1]; ART 0.4 μM, exposure 2 h) | Larvae survival ([1]; ART 0.4 μM, exposure 4 h)
S/L: Larvae survival ([1]; ART 0.4 μM, exposure 6 h)

C/C=C(/C)C(=O)O[C@H]1C(C)=C2[C@H]([C@@H]1OC(=O)CCCCCCC)[C@@](C)(OC(C)=O)C[C@H](OC(=O)CCC)[C@@]1(O)[C@H]2OC(=O)[C@@]1(C)O [TG, Thapsigargin]
lethal: Lethality to larvae [2]
